This is an account of results in US11926628B2 (Gilead Sciences, Inc., priority 2021, dated 2024).

In general, EC50 refers to the concentration needed to bring the measured effect to its halfway point. The IC50 is the point on the concentration scale where inhibition reaches its midpoint.

The test system of test [1] is Jurkat NFκB-luciferase cells. Put plainly: Jurkat NFκB-Luciferase Assay. The test is classed as cell-based. Particulars: Homo sapiens; Jurkat NFκB-luciferase cells activated with anti-CD3 antibody (OKT3), 2.5 hrs at 37° C.; geometric mean; read-out: DGK NFKb Luciferase EC50. Put shortly:
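Jurkat NFκB-luciferase reporter cells stimulated on plate-bound anti-CD3 (5 ug/ml coating) with compound, 2.5 hrs at 37° C then 30 min at 25° C; luminescence read with One-Glo Ex. Normalized to DMSO (basal) and 1 micromolar compound (maximum) controls; EC50 from four-parameter fit, geometric mean across experiments.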

A further test concerns the target human DGKα (Homo sapiens (Human), UniProt P23743). As to the kind of experiment: DGKα Biochemical Activity Assay (ADP-Glo). Particulars: recombinant DGKα 1 nM, 100 μM ATP, 18:1 DAG/POPS/octylglucoside micelles, 1 hour at 25° C.; geometric mean; read-out: HTBS DGKa 1X ATP KM IC50. Put shortly: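 Recombinant DGKα (1 nM final) was preincubated with compound for 15 min, then reacted for 1 h at 25 °C with 100 μM ATP and octylglucoside micelles of 0.85 mM 18:1 DAG and 6.75 mM POPS in pH 7.2 MOPS with 5 mM MgCl2. ADP formed was read by ADP-Glo luminescence. IC50 came from four-parameter fits normalized to DMSO and 50 μM CU3, and values were geometric means.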
For orientation: ADP-Glo turns the ADP formed in a reaction into a luminescent signal.

human DGKα, sequence (P23743 whole entry): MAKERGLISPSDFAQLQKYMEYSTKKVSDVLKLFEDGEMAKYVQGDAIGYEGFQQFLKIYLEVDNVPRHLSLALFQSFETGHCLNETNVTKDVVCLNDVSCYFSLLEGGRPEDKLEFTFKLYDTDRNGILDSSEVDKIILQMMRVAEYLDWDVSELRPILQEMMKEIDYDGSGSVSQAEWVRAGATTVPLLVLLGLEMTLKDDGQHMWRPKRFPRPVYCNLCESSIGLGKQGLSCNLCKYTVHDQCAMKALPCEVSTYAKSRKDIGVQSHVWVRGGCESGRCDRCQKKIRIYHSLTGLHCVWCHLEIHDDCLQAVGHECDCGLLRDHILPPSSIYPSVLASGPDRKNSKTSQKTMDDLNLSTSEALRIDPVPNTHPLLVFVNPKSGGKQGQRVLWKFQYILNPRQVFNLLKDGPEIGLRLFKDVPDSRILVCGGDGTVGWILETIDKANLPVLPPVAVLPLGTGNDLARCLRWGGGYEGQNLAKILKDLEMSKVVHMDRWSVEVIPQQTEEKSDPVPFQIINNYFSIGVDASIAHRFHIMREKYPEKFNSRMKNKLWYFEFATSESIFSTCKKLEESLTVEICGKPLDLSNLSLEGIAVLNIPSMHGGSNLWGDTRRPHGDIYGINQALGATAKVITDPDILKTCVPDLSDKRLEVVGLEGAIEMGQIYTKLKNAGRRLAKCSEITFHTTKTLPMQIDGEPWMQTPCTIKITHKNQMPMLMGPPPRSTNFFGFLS

Regarding `Cc1nnc2nc(N3CCOCc4c(C#CC5(C)CC5)cccc43)c3c(F)cncc3n12` [Example 79, 1-(6-fluoro-1-methylpyrido[4,3-e][1,2,4]triazolo[4,3-a]pyrimidin-5-yl)-6-((1-methylcyclopropyl)ethynyl)-1,2,3,5-tetrahydrobenzo[e][1,4]oxazepine], the EC50 in test [1] was determined as 2 nM. In addition, at human DGKα, the IC50 turned out to be 2.28 nM.

Turning to `Cc1nnc2nc(N3CCOCc4c(C#CC5CC5)cccc43)c3c(F)cncc3n12` [Example 80, 6-(cyclopropylethynyl)-1-(6-fluoro-1-methylpyrido[4,3-e][1,2,4]triazolo[4,3-a]pyrimidin-5-yl)-1,2,3,5-tetrahydrobenzo[e][1,4]oxazepine], in test [1], the EC50 worked out at 4.78 nM. In addition, the IC50 on human DGKα was 1.68 nM.

`Cc1nnc2nc(N3CCOCc4c(Br)cccc43)c3c(F)cncc3n12` [Example 81, 6-bromo-1-(6-fluoro-1-methylpyrido[4,3-e][1,2,4]triazolo[4,3-a]pyrimidin-5-yl)-1,2,3,5-tetrahydrobenzo[e][1,4]oxazepine]: the EC50 in test [1] is 46.7 nM. On human DGKα, the IC50 is 151 nM.

On to `CC1(C#Cc2cccc3c2CCCN3c2nc3nncn3c3cnccc23)CC1` [Example 82], for which the EC50 in test [1] is 1.3 nM. The IC50 on human DGKα turned out to be 10.3 nM.

In the case of `FC(F)(F)C1(C#Cc2cccc3c2CCCN3c2nc3nncn3c3cnccc23)CC1` [Example 83, 8-[5-[2-[1-(trifluoromethyl)cyclopropyl]ethynyl]-3,4-dihydro-2H-quinolin-1-yl]-2,4,5,7,12-pentazatricyclo[7.4.0.02,6]trideca-1(13),3,5,7,9,11-hexaene], the EC50 in test [1] came out at 1.76 nM. Besides, the IC50 on human DGKα amounted to 14.2 nM.

As for `CC(C)(C#Cc1cccc2c1CCCN2c1nc2nncn2c2cncc(F)c12)C(F)(F)F` [Example 84, 10-fluoro-8-[5-(4,4,4-trifluoro-3,3-dimethyl-but-1-ynyl)-3,4-dihydro-2H-quinolin-1-yl]-2,4,5,7,12-pentazatricyclo[7.4.0.02,6]trideca-1(13),3,5,7,9,11-hexaene], in test [1], the EC50 is 1.19 nM. Also, the 50% inhibitory concentration (IC50) on human DGKα came to 10.7 nM.

With `CC(C)(O)C#Cc1cccc2c1CCCN2c1nc2nncn2c2cncc(F)c12` [Example 85, 4-[1-(10-fluoro-2,4,5,7,12-pentazatricyclo[7.4.0.02,6]trideca-1(13),3,5,7,9,11-hexaen-8-yl)-3,4-dihydro-2H-quinolin-5-yl]-2-methyl-but-3-yn-2-ol], the EC50 in test [1] came out at 12.7 nM. Moreover, at human DGKα, the IC50 came out at 13.4 nM.

In the case of `CC1(C#Cc2cccc3c2CCCN3c2nc3nncn3c3cncc(F)c23)CC1` [Example 86, 10-fluoro-8-[5-[2-(1-methylcyclopropyl)ethynyl]-3,4-dihydro-2H-quinolin-1-yl]-2,4,5,7,12-pentazatricyclo[7.4.0.02,6]trideca-1(13),3,5,7,9,11-hexaene], the EC50 in test [1] stood at 0.518 nM. Moreover, the IC50 on human DGKα is 3.39 nM.

With `Fc1cncc2c1c(N1CCCc3c(C#CC4(C(F)(F)F)CC4)cccc31)nc1nncn12` [Example 87, 10-fluoro-8-[5-[2-[1-(trifluoromethyl)cyclopropyl]ethynyl]-3,4-dihydro-2H-quinolin-1-yl]-2,4,5,7,12-pentazatricyclo[7.4.0.02,6]trideca-1(13),3,5,7,9,11-hexaene], the EC50 in test [1] came to 0.839 nM. The IC50 at human DGKα was found to be 8.6 nM.

With `CCN(c1cc(F)cc(C#CC(C)(C)C(F)(F)F)c1)c1nc2nncn2c2cncc(F)c12` [Example 88, N-ethyl-10-fluoro-N-[3-fluoro-5-(4,4,4-trifluoro-3,3-dimethyl-but-1-ynyl)phenyl]-2,4,5,7,12-pentazatricyclo[7.4.0.02,6]trideca-1(13),3,5,7,9,11-hexaen-8-amine], the EC50 in test [1] is 1.22 nM. The IC50 at human DGKα turned out to be 41.1 nM.

Consider `CCN(c1cc(F)cc(C#CC2(C)CC2)c1)c1nc2nncn2c2cncc(F)c12` [Example 89, N-ethyl-10-fluoro-N-[3-fluoro-5-[2-(1-methylcyclopropyl)ethynyl]phenyl]-2,4,5,7,12-pentazatricyclo[7.4.0.02,6]trideca-1(13),3,5,7,9,11-hexaen-8-amine], for which the EC50 in test [1] worked out at 0.655 nM. In addition, at human DGKα, the IC50 amounted to 6.18 nM.

Turning to `CCN(c1cc(F)cc(C#CC2(C(F)(F)F)CC2)c1)c1nc2nncn2c2cncc(F)c12` [Example 90, N-ethyl-10-fluoro-N-[3-fluoro-5-[2-[1-(trifluoromethyl)cyclopropyl]ethynyl]phenyl]-2,4,5,7,12-pentazatricyclo[7.4.0.02,6]trideca-1(13),3,5,7,9,11-hexaen-8-amine], the EC50 in test [1] turned out to be 0.715 nM. The half-inhibitory concentration (IC50) at human DGKα worked out at 12 nM.

With `CN(c1cc(F)cc(C#CC2(C)CC2)c1)c1nc2nncn2c2cncc(F)c12` [Example 91, 10-fluoro-N-[3-fluoro-5-[2-(1-methylcyclopropyl)ethynyl]phenyl]-N-methyl-2,4,5,7,12-pentazatricyclo[7.4.0.02,6]trideca-1(13),3,5,7,9,11-hexaen-8-amine], the EC50 in test [1] came to 1.25 nM. Besides, the IC50 on human DGKα was 6.25 nM.

As for `CN(c1cc(F)cc(C#CC(C)(C)O)c1)c1nc2nncn2c2cncc(F)c12` [Example 92, 4-[3-fluoro-5-[(10-fluoro-2,4,5,7,12-pentazatricyclo[7.4.0.02,6]trideca-1(13),3,5,7,9,11-hexaen-8-yl)-methyl-amino]phenyl]-2-methyl-but-3-yn-2-ol], the EC50 in test [1] was 32.1 nM. Besides, the concentration for half-maximal inhibition (IC50) on human DGKα was determined as 17.4 nM.

Regarding `CN(c1cc(F)cc(C#CC2(C(F)(F)F)CC2)c1)c1nc2nncn2c2cncc(F)c12` [Example 93, 10-fluoro-N-[3-fluoro-5-[2-[1-(trifluoromethyl)cyclopropyl]ethynyl]phenyl]-N-methyl-2,4,5,7,12-pentazatricyclo[7.4.0.02,6]trideca-1(13),3,5,7,9,11-hexaen-8-amine], the EC50 in test [1] was determined as 0.763 nM. In addition, the IC50 on human DGKα was 7.17 nM.

`Cc1nnc2nc(N3CCOCc4c(C#CC5(C(C)(F)F)CC5)cccc43)c3c(F)cncc3n12` [Example 94, 6-((1-(1,1-difluoroethyl)cyclopropyl)ethynyl)-1-(6-fluoro-1-methylpyrido[4,3-e][1,2,4]triazolo[4,3-a]pyrimidin-5-yl)-1,2,3,5-tetrahydrobenzo[e][1,4]oxazepine]: the EC50 in test [1] came to 3.39 nM. Also, on human DGKα, the IC50 is 25.1 nM.

As to `Cc1nnc2nc(N3CCOCc4c(C#Cc5cnn(C)c5)cccc43)c3c(F)cncc3n12` [Example 95, 1-(6-fluoro-1-methylpyrido[4,3-e][1,2,4]triazolo[4,3-a]pyrimidin-5-yl)-6-((1-methyl-1H-pyrazol-4-yl)ethynyl)-1,2,3,5-tetrahydrobenzo[e][1,4]oxazepane], the EC50 in test [1] was found to be 31.2 nM. For the same compound, on human DGKα, the IC50 worked out at 6.95 nM.

In the case of `Cc1nnc2nc(N3CCOCc4c(C#CC(C)(C)C#N)cccc43)c3c(F)cncc3n12` [Example 96, 4-(1-(6-fluoro-1-methylpyrido[4,3-e][1,2,4]triazolo[4,3-a]pyrimidin-5-yl)-1,2,3,5-tetrahydrobenzo[e][1,4]oxazepin-6-yl)-2,2-dimethylbut-3-ynenitrile], the EC50 in test [1] came out at 6.63 nM. Also, at human DGKα, the IC50 is 3.84 nM.

For the compound `Cc1nnc2nc(N3CCCc4c(C#CC(C)(C)C#N)cccc43)c3c(F)cncc3n12` [Example 97, 4-(1-(6-fluoro-1-methylpyrido[4,3-e][1,2,4]triazolo[4,3-a]pyrimidin-5-yl)-1,2,3,4-tetrahydroquinolin-5-yl)-2,2-dimethylbut-3-ynenitrile], in test [1], the EC50 turned out to be 4.1 nM. Further, the IC50 at human DGKα came out at 4.65 nM.

With `Cc1nnc2nc(N3CCCc4c(C#CC(C)(C)O)cccc43)c3cc(F)cnc3n12` [Example 98, 4-(1-(3-fluoro-9-methylpyrido[3,2-e][1,2,4]triazolo[4,3-a]pyrimidin-5-yl)-1,2,3,4-tetrahydroquinolin-5-yl)-2-methylbut-3-yn-2-ol], in test [1], the EC50 stood at 26.2 nM. Further, the IC50 on human DGKα turned out to be 49 nM.

As for `Cc1nnc2nc(N(CC(F)F)c3cc(F)cc(C#CC(C)(C)O)c3)c3cc(F)cnc3n12` [Example 99, 4-(3-((2,2-difluoroethyl)(3-fluoro-9-methylpyrido[3,2-e][1,2,4]triazolo[4,3-a]pyrimidin-5-yl)amino)-5-fluorophenyl)-2-methylbut-3-yn-2-ol], in test [1], the EC50 was determined as 53.1 nM. For the same compound, on human DGKα, the IC50 was found to be 38.9 nM.

Take `Cc1nnc2nc(N3CCCc4c(C#CC5(C(F)F)CC5)cccc43)c3cc(F)cnc3n12` [Example 100, 5-(5-((1-(difluoromethyl)cyclopropyl)ethynyl)-3,4-dihydroquinolin-1(2H)-yl)-3-fluoro-9-methylpyrido[3,2-e][1,2,4]triazolo[4,3-a]pyrimidine]: the EC50 in test [1] came to 2.26 nM. Besides, on human DGKα, the half-inhibitory concentration (IC50) was 7.93 nM.

For `Cc1nnc2nc(N3CCCc4c(C#CC5(C(F)(F)F)CC5)cccc43)c3cc(F)cnc3n12` [Example 101, 3-fluoro-9-methyl-5-(5-((1-(trifluoromethyl)cyclopropyl)ethynyl)-3,4-dihydroquinolin-1(2H)-yl)pyrido[3,2-e][1,2,4]triazolo[4,3-a]pyrimidine], the EC50 in test [1] worked out at 1.01 nM. Besides, on human DGKα, the IC50 was 6.21 nM.

Take `Cc1nnc2nc(N3CCCc4c(C#CC(C)(C)C(F)(F)F)cccc43)c3cc(F)cnc3n12` [Example 102, 3-fluoro-9-methyl-5-(5-(4,4,4-trifluoro-3,3-dimethylbut-1-yn-1-yl)-3,4-dihydroquinolin-1(2H)-yl)pyrido[3,2-e][1,2,4]triazolo[4,3-a]pyrimidine]: the EC50 in test [1] amounted to 1.8 nM. For the same compound, the IC50 on human DGKα worked out at 21.4 nM.
